From PubChem BioAssay (NCI)
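A five-concentration, 48-hour dose response in 96-well plates underlies each endpoint, interpolated linearly between surrounding concentrations. TGI marks complete inhibition of growth.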

Tests used:
Test in all cases: inhibition of tumour cell growth, NCI panel, 48 h
[1] = test system: MALME-3M melanoma
[2] = test system: ACHN renal
[3] = test system: KM12 colon
[4] = test system: IGROV1 ovarian
[5] = test system: OVCAR-4 ovarian
[6] = test system: HT29 colon
[7] = test system: OVCAR-8 ovarian
[8] = test system: UO-31 renal
[9] = test system: K-562 leukemia
[10] = test system: SK-OV-3 ovarian
[11] = test system: OVCAR-3 ovarian
[12] = test system: SF-295 CNS
[13] = test system: NCI-H460 lung
[14] = test system: HCT-116 colon
[15] = test system: PC-3 prostate
[16] = test system: NCI-H226 lung
[17] = test system: SNB-75 CNS
[18] = test system: RXF 393 renal
[19] = test system: HOP-92 NSCLC
[20] = test system: COLO 205 colon
[21] = test system: HOP-62 NSCLC
[22] = test system: SK-MEL-28 melanoma
[23] = test system: EKVX NSCLC
[24] = test system: M14 melanoma
[25] = test system: MDA-N
[26] = test system: UACC-62 melanoma
[27] = test system: CCRF-CEM leukemia
[28] = test system: HL-60(TB) leukemia
[29] = test system: MOLT-4 leukemia
[30] = test system: SR leukemia
[31] = test system: MCF7 breast
[32] = test system: BT-549 breast
[33] = test system: MDA-MB-231 breast
[34] = test system: SK-MEL-2 melanoma
[35] = test system: A498 renal
[36] = test system: SNB-19 CNS
[37] = test system: LOX IMVI melanoma
[38] = test system: TK-10 renal
[39] = test system: HS 578T breast
[40] = test system: U251 CNS
[41] = test system: A549 NSCLC
[42] = test system: SF-539 CNS
[43] = test system: SW-620 colon
[44] = test system: CAKI-1 renal
[45] = test system: SN12C renal
[46] = test system: HCC-2998 colon
[47] = test system: HCT-15 colon
[48] = test system: UACC-257 melanoma
[49] = test system: 786-0 renal
[50] = test system: SK-MEL-5 melanoma
[51] = test system: NCI-H23 lung
[52] = test system: NCI/ADR-RES ovarian
[53] = test system: OVCAR-5 ovarian

Measured: TGI

Cn1c(=O)n2c(-c3ccccc3)c(-c3ccccc3)n2c1=O
> 100 µM: [1] | [2] | [3] | [4] | [5] | [6] | [7] | [8] | [9] | [10] | [11] | [12] | [13] | [14] | [15] | [16] | [17] | [18] | [19] | [20] | [21] | [22] | [23] | [24] | [25] | [26] | [27] | [28] | [29] | [30] | [31] | [32] | [33] | [34] | [35] | [36] | [37] | [38] | [39] | [40] | [41] | [42] | [43] | [44] | [45] | [46] | [47] | [48] | [49] | [50] | [51] | [52] | [53]
